{
  "source": "patent EP0882446A1",
  "about": "“Antimicrobial skin cleansing compositions” (GOJO INDUSTRIES,INC., priority 1997, dated 1998)",
  "origin": "cited, not measured here",
  "key": {"[1]": {"tested_on": "wide spectrum of bacteria", "conditions": "against a wide spectrum of bacteria; reported"}, "[2]": {"conditions": "at levels below about 3 percent by weight"}},
  "data": [
    {"smiles": "Cc1cc(O)cc(C)c1Cl", "note": "[PCMX, 4-chloro-3,5-dimethyl phenol]", "values": [
      {"measurement": "antimicrobial activity relative to phenol", "setting": "[1]", "result": 60, "unit": "times"},
      {"measurement": "toxicity and irritation to human skin", "setting": "[2]", "result": "non-toxic and non-irritating"}
    ]}
  ]
}
